Test [1] has as its system Tetranychus urticae. Nature of the test: Acaricidal activity against Tetranychus urticae (two-spotted spider mite) infected cowpea plant assessed as mortality at 10 ppm sprayed 24 hr post-infection measured after 3 days. Format: functional.
Test [2] relates to Tetranychus urticae. Nature of the test: Acaricidal activity against Tetranychus urticae (two-spotted spider mite) infected cowpea plant assessed as mortality at 1 ppm sprayed 24 hr post-infection measured after 3 days. It counts as functional.

Drawing on ChEMBL document CHEMBL3046761, “Synthesis of 27-oxo, 27-hydroxymilbemycins A3 and A4 and novel 27-alkoxymilbemycins A3 and A4 from milbemycins A3 and A4 and their acaricidal activities” (2002), this text covers mortality for 16 compounds.

In general, mortality refers to the share of the test organisms that died.

Turning to `CC[C@H]1O[C@]2(CC[C@@H]1C)C[C@@H]1C[C@@H](C/C=C(\C)C[C@@H](C)/C=C/C=C3\C(=O)O[C@@H]4[C@H](O)C(C)=C[C@@H](C(=O)O1)[C@]34O)O2` [27-OXOMILBEMYCIN A4], the mortality at 10 ppm with Tetranychus urticae [1] worked out at 11%. The mortality at 1 ppm in the test with Tetranychus urticae [2] was 4%.

As to `CC1=C[C@H]2C(=O)O[C@H]3C[C@@H](C/C=C(\C)C[C@@H](C)/C=C/C=C(\C=O)[C@]2(O)[C@H](O)[C@@H]1O)O[C@@]1(CC[C@H](C)[C@@H](C)O1)C3`, the mortality at 10 ppm in the test on Tetranychus urticae [1] amounted to 17%. For the same compound, the mortality at 1 ppm in the test with Tetranychus urticae [2] amounted to 7%.

On to `CC[C@H]1O[C@]2(CC[C@@H]1C)C[C@@H]1C[C@@H](C/C=C(\C)C[C@@H](C)/C=C/C=C3\CO[C@@H]4[C@H](O)C(C)=C[C@@H](C(=O)O1)[C@]34O)O2` [MILBEMYCIN A4], for which the mortality at 10 ppm in the test on Tetranychus urticae [1] turned out to be 100%. Also, in the test on Tetranychus urticae [2], the mortality at 1 ppm came to 32%.

Consider `CC1=C[C@H]2C(=O)O[C@H]3C[C@@H](C/C=C(\C)C[C@@H](C)/C=C/C=C4\C(=O)O[C@H]([C@@H]1O)[C@@]42O)O[C@@]1(CC[C@H](C)[C@@H](C)O1)C3` [27-OXOMILBEMYCIN A3], for which the mortality at 10 ppm with Tetranychus urticae [1] was 3%. Further, the mortality at 1 ppm in the test with Tetranychus urticae [2] stood at 3%.

Consider `CO[C@H]1O[C@@H]2[C@H](O)C(C)=C[C@H]3C(=O)O[C@H]4C[C@@H](C/C=C(\C)C[C@@H](C)/C=C/C=C\1[C@]23O)O[C@@]1(CC[C@H](C)[C@@H](C)O1)C4` [27-ALPHAMETHOXY MILBEMYCIN A3], for which the mortality at 10 ppm in the test on Tetranychus urticae [1] turned out to be 72%. Also, the mortality at 1 ppm in the test with Tetranychus urticae [2] was 8%.

On to `CC[C@H]1O[C@]2(CC[C@@H]1C)C[C@@H]1C[C@@H](C/C=C(\C)C[C@@H](C)/C=C/C=C3\[C@H](OC(C)C)O[C@@H]4[C@H](O)C(C)=C[C@@H](C(=O)O1)[C@]34O)O2` [27-BETAISOPROPOXY MILBEMYCIN A4], for which, in the test with Tetranychus urticae [1], the mortality at 10 ppm was determined as 72%. Besides, in the test on Tetranychus urticae [2], the mortality at 1 ppm was 22%.

Take `CC[C@H]1O[C@]2(CC[C@@H]1C)C[C@@H]1C[C@@H](C/C=C(\C)C[C@@H](C)/C=C/C=C(\C=O)[C@]3(O)[C@H](O)[C@H](O)C(C)=C[C@H]3C(=O)O1)O2`: the mortality at 10 ppm in the test on Tetranychus urticae [1] came to 53%. For the same compound, the mortality at 1 ppm with Tetranychus urticae [2] was found to be 11%.

`CC1=C[C@H]2C(=O)O[C@H]3C[C@@H](C/C=C(\C)C[C@@H](C)/C=C/C=C4\CO[C@H]([C@@H]1O)[C@@]42O)O[C@@]1(CC[C@H](C)[C@@H](C)O1)C3` [MILBEMYCIN A3]: the mortality at 10 ppm in the test with Tetranychus urticae [1] is 69%. Besides, the mortality at 1 ppm in the test with Tetranychus urticae [2] came out at 3%.

For `CO[C@@H]1O[C@@H]2[C@H](O)C(C)=C[C@H]3C(=O)O[C@H]4C[C@@H](C/C=C(\C)C[C@@H](C)/C=C/C=C\1[C@]23O)O[C@@]1(CC[C@H](C)[C@@H](C)O1)C4` [27-BETAMETHOXY MILBEMYCIN A3], in the test on Tetranychus urticae [1], the mortality at 10 ppm was 65%. Further, the mortality at 1 ppm in the test on Tetranychus urticae [2] was found to be 3%.

With `CC[C@H]1O[C@]2(CC[C@@H]1C)C[C@@H]1C[C@@H](C/C=C(\C)C[C@@H](C)/C=C/C=C3\[C@H](OC)O[C@@H]4[C@H](O)C(C)=C[C@@H](C(=O)O1)[C@]34O)O2` [27-BETAMETHOXY MILBEMYCIN A4], in the test on Tetranychus urticae [1], the mortality at 10 ppm worked out at 87%. In the test on Tetranychus urticae [2], the mortality at 1 ppm was found to be 19%.

As for `CC1=C[C@H]2C(=O)O[C@H]3C[C@@H](C/C=C(\C)C[C@@H](C)/C=C/C=C4\C(O)O[C@H]([C@@H]1O)[C@@]42O)O[C@@]1(CC[C@H](C)[C@@H](C)O1)C3` (some centres not stated) [27-HYDROXY MILBEMYCIN A3], the mortality at 10 ppm in the test on Tetranychus urticae [1] is 17%. The mortality at 1 ppm in the test on Tetranychus urticae [2] was 7%.

`CCO[C@@H]1O[C@@H]2[C@H](O)C(C)=C[C@H]3C(=O)O[C@H]4C[C@@H](C/C=C(\C)C[C@@H](C)/C=C/C=C\1[C@]23O)O[C@@]1(CC[C@H](C)[C@@H](CC)O1)C4` [27-BETAETHOXY MILBEMYCIN A4]: in the test with Tetranychus urticae [1], the mortality at 10 ppm was 77%. The mortality at 1 ppm in the test on Tetranychus urticae [2] turned out to be 0%.

Consider `CC[C@H]1O[C@]2(CC[C@@H]1C)C[C@@H]1C[C@@H](C/C=C(\C)C[C@@H](C)/C=C/C=C3\[C@@H](OC)O[C@@H]4[C@H](O)C(C)=C[C@@H](C(=O)O1)[C@]34O)O2` [27-ALPHAMETHOXY MILBEMYCIN A4], for which the mortality at 10 ppm with Tetranychus urticae [1] was 92%. In addition, the mortality at 1 ppm in the test with Tetranychus urticae [2] is 17%.

Turning to `CC[C@H]1O[C@]2(CC[C@@H]1C)C[C@@H]1C[C@@H](C/C=C(\C)C[C@@H](C)/C=C/C=C3\[C@@H](OC(C)C)O[C@@H]4[C@H](O)C(C)=C[C@@H](C(=O)O1)[C@]34O)O2` [27-ALPHAISOPROPOXY MILBEMYCIN A4], the mortality at 10 ppm with Tetranychus urticae [1] stood at 76%. Besides, in the test on Tetranychus urticae [2], the mortality at 1 ppm turned out to be 14%.

Take `CCO[C@H]1O[C@@H]2[C@H](O)C(C)=C[C@H]3C(=O)O[C@H]4C[C@@H](C/C=C(\C)C[C@@H](C)/C=C/C=C\1[C@]23O)O[C@@]1(CC[C@H](C)[C@@H](CC)O1)C4` [27-ALPHAETHOXY MILBEMYCIN A4]: the mortality at 10 ppm in the test on Tetranychus urticae [1] came out at 81%. In addition, in the test on Tetranychus urticae [2], the mortality at 1 ppm stood at 25%.

Regarding `CC[C@H]1O[C@]2(CC[C@@H]1C)C[C@@H]1C[C@@H](C/C=C(\C)C[C@@H](C)/C=C/C=C3\C(O)O[C@@H]4[C@H](O)C(C)=C[C@@H](C(=O)O1)[C@]34O)O2` (some centres not stated) [27-HYDROXY MILBEMYCIN A4], in the test on Tetranychus urticae [1], the mortality at 10 ppm came to 53%. Besides, the mortality at 1 ppm in the test on Tetranychus urticae [2] is 11%.
